In patent publication US7776826B2, “Method for fostering bone formation and preservation” (Unigene Laboratories, Inc., priority 2004, dated 2010):
Where no end group is shown, it is not given here.

Assays:
Assay type in all cases: in vivo, rat
[1] = tested on: osteoporotic female Sprague-Dawley rats; assay: Lumbar vertebral bone mineral density and bone formation rate in ovariectomized osteoporotic rats, without mechanical induction; settings: OVX rats, 4 weeks subcutaneous treatment, no mechanical induction
Experimental: FIG. 15 is a bar graph comparing the Lumbar Vertebral Bone Mineral Density obtained in osteoporotic female Sprague-Dawley rats wherein the osteoporosis was induced via an ovariectomy. The rats were treated with (1) PTH[1-31]-NH2; (2) PTH[1-34]-NH2; and PTH[1-34]-OH; and
FIG. 16 is a bar graph comparing the Lumbar Vertebral Bone Formation Rate obtained in osteoporotic female Sprague-Dawley rats wherein the osteoporosis was induced via an ovariectomy. The rats were treated with (1) PTH[1-31]-NH2; (2) PTH[1-34]-NH2; and PTH[1-34]-OH.
A series of experiments was performed comparing (1) lumbar vertebral bone mineral density, and (2) lumbar vertebral bone formation rate achieved with PTH[1-31]-NH2 and PTH[1-34]-OH compared to the preferred PTH[1-34]-NH2 analog discussed above in the absence of the mechanical induction step of the invention. The study involved a four-week treatment of female Sprague-Dawley rats at 10 months of age, and 6 months post-ovariectomy (“OVX”), which induces osteoporosis, with one of the three above-noted parathyroid hormone truncates. The rats were randomized into the following groups: sham OVX, OVX+ vehicle, OVX+PTH [1-31]-NH2 or PTH [1-34]-NH2 (obtained from Unigene Laboratories, Inc.) at 2.5, 10 or 40 μg/kg/day subcutaneous, or PTH[1-34]-OH (obtained from Bachem) at 10 μg/kg/day subcutaneous. After 4 weeks of treatment, the right femur of each animal was analyzed by DEXA and bone histomorphometry. FIG. 15 is a bar graph providing a comparison of the lumbar vertebral bone mineral density achieved with PTH[1-31]-NH2, PTH[1-34]-NH2 and PTH[1-34]-OH. FIG. 16 is a bar graph comparing the lumbar vertebral formation rates achieved with these same truncates. […] Because of the similarity of anabolic action among the above-discussed parathyroid hormones, it is therefore reasonable to expect that all known PTH analogs will advantageously function in the desired manner in the method of the present invention.

Male Sprague-Dawley rats [2] = assay: pQCT analysis of left and right femoral shafts at day 21, Groups K-R; settings: for Left femoral shaft Total density mean / Left femoral shaft Trabecular density mean: ablated femur; for Left femoral shaft Total density mean / Left femoral shaft Trabecular density mean / Right femoral shaft Total density mean / Right femoral shaft Trabecular density mean: day 21, agent daily for 21 days, Groups K-R; for trabecular bone density of left femoral shaft, in words: bmx, day 21; for Right femoral shaft Total density mean / Right femoral shaft Trabecular density mean: non-ablated femur
Source text: (§1) FIG. 10 (a-b) presents high resolution radiograms of the left and right femurs, respectively, from an additional series of experiments on additional groups of male Sprague-Dawley rats (6 rats per group) aged 9 weeks which were sacrificed and tested after 21 days (3 weeks). The various groups were subjected to the following treatment modalities: Group K—control day 0; Group L—control day 21; Group M—bone marrow ablation (bmx) day 0; Group N—sham day 21; Group O— bmx+phosphate buffer saline (PBS) daily for 21 days; Group P—bmx+PTH[1-34]-NH2 daily for 21 days; Group Q—bmx+ parathyroid hormone related peptide (PTHRP) daily for 21 days; and Group R—bmx+rat α-calcitonin gene related peptide (CGRP) daily for 21 days;
FIG. 11 (a-d) are graphical representations of the results of Peripheral Quantitative Computerized Tomography (PQCT) analyses of, respectively, the left (ablated) and right (non-ablated) femoral shafts of the rats from Groups K-R (see description of FIG. 10). FIGS. 11(a) and 11(b) illustrate the trabecular bone density observed in, respectively the left and right femoral shafts at day 21; whereas, FIGS. 11(c) and 11(d) illustrate the total bone density of, respectively, the left and right femoral shafts at the same interval. The meanings of the abbreviations used in FIGS. 11(a-d) are identical to those described above with regard to FIG. 10. […] [+=p value<0.01 vs. sham; *=p value<0.01 vs. bmx+PTH; **=p value<0.01 vs. bmx+PTH; and #=p value<0.05 vs. PBS];
An additional series of experiments was thereafter carried out with additional groups of rats (K-R) in order to (1) measure the effect of additional bone anabolic agents, i.e., other than parathyroid hormone (PTH[1-34]-NH2) and calcitonin, as well as to compare the effect(s) achieved with such parathyroid hormone with those obtained with the use of alternate anabolic agents, including parathyroid hormone related peptide (PTHrP) and calcitonin gene related peptide (CGRP). As in the case of the analyses discussed above with regard to FIGS. 3-9, in the animals tested only the left femur underwent the bone marrow ablation (bmx) procedure, i.e., there was no ablation of the right femur. Thus, as noted above, any views of the right femur in the figures described below indicating bone marrow ablation (bmx) as a treatment modality should be taken to mean that such treatment was applied to the corresponding left femur. Further, as was additionally the case above, the samples described below with regard to FIGS. 10-13 were taken from the femur shafts, rather than the corresponding distal epiphysis as in the case of FIGS. 1 and 2. The figures discussed below depict the results of end-point studies wherein the measurements were taken only at the 21 day end-point.
FIG. 11 (a-d) graphically illustrates, by means of a bar graph, the improvements in trabecular bone density and, to some extent, total bone density, in the left femoral shaft of rats subjected to the treatment modalities described above with regard to FIG. 10 (a-b); that is, control day 0; bmx day 0; control day 21; sham day 21; bmx+PBS on day 21; bmx+PTH on day 21; bmx+PTHrP on day 21; and bmx+CGRP on day 21. Again, this is attributable that (only) the left femur was subjected to the bmx treatment, and thus was the only femur wherein the effects of such bmx treatment overlapped with that of the systemic treatment with the bone anabolic agent. […] In contrast to the values obtained for the left femur, no significant amount of bone was formed in the right femur, notwithstanding whether it is trabecular bone density or total bone density which is being measured. This lack of new bone is, furthermore, attributable to the fact that the right femur had not been subjected to the bone marrow ablation (bmx) treatment.

Male Sprague-Dawley rats [3] = assay: Serum osteocalcin concentration at day 21, Groups K-R; settings: for osteocalcin level, in words: bmx + agent daily for 21 days; for Osteocalcin mean: bmx rats, day 21, agent daily for 21 days, Groups K-R
Source text: FIG. 12 provides a measurement of the serum osteocalcin concentration (in ng/ml) in the blood of the rats in Groups K-R when the rats were sacrificed 21 days after commencement of treatment. The meaning of the abbreviated terms is the same as in FIGS. 10 and 11. […] [*=p value<0.05, while **=p value<0.01];
FIG. 12 is a bar graph which sets forth the osteocalcin levels determined, at the time of sacrifice, in the blood serum of the rats which were the subject of the analyses illustrated in FIGS. 10 and 11. As indicated above, it is well known that osteocalcin is a biochemical marker indicative of new bone growth.
The table additionally includes the standard deviations for the values obtained for each analysis, which standard deviations are also included in FIG. 12.

Male Sprague-Dawley rats [4] = assay: High resolution radiograms of left and right femurs, Groups K-R; settings: left femur with bmx, agent daily for 21 days
Source text: as §1
FIG. 10 (a-b) presents a set of high resolution radiograms of the entire left and right femurs of additional (to those described above) groups of rats, injected daily for a designated term with one or more of the following agents: phosphate buffer saline (PBS); parathyroid hormone (PTH[1-34]-NH2); parathyroid hormone related peptide (PTHrP); and calcitonin gene related peptide (CGRP). The rats chosen for test subjects were subjected to the following treatment modalities (as indicated in the lower left corner of each of the radiograms): control day 0; control day 21; bone marrow ablation (bmx) day 0; sham day 21; bmx followed by injection of PBS buffer daily for 21 days; bmx followed by injection of PTH daily for 21 days; bmx followed by injection of PTHrP daily for 21 days; and bmx followed by injection of CGRP daily for 21 days.
As shown by FIG. 10(a), the best results, i.e., the greatest bone density, was obtained in the left femur wherein the effect of the bone marrow ablation overlapped with that attributable to the administration of the various anabolic agents. As in the case of FIG. 3, the lighter, i.e, more radio-opaque, areas indicate the locations of the greatest additional bone growth.

Male Sprague-Dawley rats [5] = assay: MicroCT analysis of femoral shafts, Groups K-R; settings: left femoral shaft with bmx, agent for 21 days
Source text: FIG. 13(a-b) illustrate the results of Micro Computerized Tomography (MicroCT) analysis of the left (ablated) and right (non-ablated) femoral shafts of the rats of Groups K-R. The abbreviations are the same as those used in FIGS. 10-12;
FIG. 13 (a-b) provides a comparison between Micro Computerized Tomography (MicroCT) analyses of bone samples taken from the left femoral shaft (FIG. 13a) and the right femoral shaft (FIG. 13b) of rats treated in the manner indicated in FIGS. 10-12. As in the other cases discussed above, the most significant amount of new bone growth is found in the shaft of the left femur, since this shaft was subjected to the bmx treatment. […] In contrast, the right femoral shaft sections show very little or no increase in bone growth at all.

Compound	bone anabolic activity (lumbar vertebral bone mineral density and bone formation rate) [1]	Left femoral shaft Total density mean (Male Sprague-Dawley rats [2]) [mg/mL]	Left femoral shaft Trabecular density mean (Male Sprague-Dawley rats [2]) [mg/mL]	trabecular bone density of left femoral shaft, in words (Male Sprague-Dawley rats [2])	Right femoral shaft Total density mean (Male Sprague-Dawley rats [2]) [mg/mL]	Right femoral shaft Trabecular density mean (Male Sprague-Dawley rats [2]) [mg/mL]	osteocalcin level, in words (Male Sprague-Dawley rats [3])	Osteocalcin mean (Male Sprague-Dawley rats [3]) [ng/mL]	bone density on radiograms, in words (Male Sprague-Dawley rats [4])	new bone growth in MicroCT, in words (Male Sprague-Dawley rats [5])
CC[C@H](C)[C@H](NC(=O)[C@H](CCC(=O)O)NC(=O)[C@H](CO)NC(=O)[C@@H](NC(=O)[C@@H](N)CO)C(C)C)C(=O)N[C@@H](CCC(N)=O)C(=O)N[C@@H](CC(C)C)C(=O)N[C@@H](CCSC)C(=O)N[C@@H](Cc1cnc[nH]1)C(=O)N[C@@H](CC(N)=O)C(=O)N[C@@H](CC(C)C)C(=O)NCC(=O)N[C@@H](CCCCN)C(=O)N[C@@H](Cc1cnc[nH]1)C(=O)N[C@@H](CC(C)C)C(=O)N[C@@H](CC(N)=O)C(=O)N[C@@H](CO)C(=O)N[C@@H](CCSC)C(=O)N[C@@H](CCC(=O)O)C(=O)N[C@@H](CCCN=C(N)N)C(=O)N[C@H](C(=O)N[C@@H](CCC(=O)O)C(=O)N[C@@H](Cc1c[nH]c2ccccc12)C(=O)N[C@@H](CC(C)C)C(=O)N[C@@H](CCCN=C(N)N)C(=O)N[C@@H](CCCCN)C(=O)N[C@@H](CCCCN)C(=O)N[C@@H](CC(C)C)C(=O)N[C@@H](CCC(N)=O)C(=O)N[C@@H](CC(=O)O)C(=O)N[C@H](C(=O)N[C@@H](Cc1cnc[nH]1)C(=O)N[C@@H](CC(N)=O)C(=O)N[C@@H](Cc1ccccc1)C(=O)O)C(C)C)C(C)C [PTH[1-34]-OH, reference compound]	substantially equivalent	–	–	–	–	–	–	–	–	–
PTH[1-31]-NH2 (SVSEIQLMHNLGKHLNSMERVEWLRKKLQDV-NH2; UniProt P01270 32-62, looked up, fragment) [amidated parathyroid hormone truncate obtained from Unigene Laboratories]	substantially equivalent	–	–	–	–	–	–	–	–	–
parathyroid hormone related peptide [PTHRP]	–	1017.9	403.1	significantly improved	858.2	122.4	Significant new bone growth	124.2	satisfactory results	significant degree of improvement
rat α-calcitonin gene related peptide [CGRP]	–	963.5	283.5	significantly improved	831.1	115.5	no increase	97	satisfactory results	new bone growth, although lesser in scope
